Results from ChEMBL document CHEMBL2177012, “Inhibitor of ovarian cancer cells growth by virtual screening: a new thiazole derivative targeting human thymidylate synthase” (J Med Chem, 2012).
Active and inactive are the calls of the source. The rule behind the calls is not given here.

How the values were obtained:
2008 [1] = experiment: Growth inhibition of human 2008 cells by crystal violet assay; type: functional, cell-based
Thymidylate synthase [2] = target: T1, Thymidylate synthase (Homo sapiens, UniProt P04818); experiment: Inhibition of human thymidylate synthase expressed in Escherichia coli at 100 uM incubated for 1 hr by spectrophotometry
Target sequence in this assay (P04818 2-313 limits assumed): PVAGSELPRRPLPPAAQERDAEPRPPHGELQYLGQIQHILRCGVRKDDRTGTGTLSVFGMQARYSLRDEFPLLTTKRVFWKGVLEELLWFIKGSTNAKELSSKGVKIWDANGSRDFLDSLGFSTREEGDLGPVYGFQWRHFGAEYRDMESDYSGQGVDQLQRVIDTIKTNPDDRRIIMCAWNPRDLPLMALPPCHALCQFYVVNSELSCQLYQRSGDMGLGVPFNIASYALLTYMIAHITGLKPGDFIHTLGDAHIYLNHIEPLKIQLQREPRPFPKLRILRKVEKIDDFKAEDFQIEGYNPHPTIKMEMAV

A2780 = experiment: Growth inhibition of human A2780 cells by crystal violet assay; type: functional, cell-based
Vero = experiment: Growth inhibition of african green monkey Vero cells by crystal violet assay; type: cell-based; conditions: Chlorocebus sabaeus
2008 [3] = experiment: Inhibition of DHFR protein expression in human 2008 cells at 40 uM incubated for 72 hrs by Western blotting; type: functional; conditions: Homo sapiens, 2008, 72 h
[4] = Growth inhibition of cDDP-resistant human C13 cells by crystal violet assay; type: functional, cell-based
2008 [5] = experiment: Effect on thymidylate synthase protein expression in human 2008 cells at 20 to 40 uM incubated for 72 hrs by Western blotting; type: functional, cell-based
C13 [6] = experiment: Increase in ROS production in cDDP-resistant human C13 cells at 20 uM incubated for 72 hrs by CM-H2DCFDA dye based fluorometry; type: functional, cell-based
C13 [7] = experiment: Increase in ROS production in cDDP-resistant human C13 cells at 40 uM incubated for 72 hrs by CM-H2DCFDA dye based fluorometry; type: functional, cell-based
Thymidylate synthase [8] = target: T1, Thymidylate synthase; experiment: Inhibition of human thymidylate synthase expressed in Escherichia coli incubated for 1 hr by spectrophotometry
Target sequence in this assay (P04818 whole entry): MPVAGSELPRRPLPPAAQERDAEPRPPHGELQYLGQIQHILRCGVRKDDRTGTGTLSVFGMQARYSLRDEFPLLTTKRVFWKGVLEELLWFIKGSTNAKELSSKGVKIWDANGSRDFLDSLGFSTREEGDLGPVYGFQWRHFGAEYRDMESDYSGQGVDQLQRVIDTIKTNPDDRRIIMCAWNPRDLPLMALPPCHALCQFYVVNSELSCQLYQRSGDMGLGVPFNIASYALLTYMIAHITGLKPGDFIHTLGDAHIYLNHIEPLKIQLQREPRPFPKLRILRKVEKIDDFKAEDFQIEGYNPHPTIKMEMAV

2008 [9] = experiment: Increase in ROS production in human 2008 cells at 20 uM incubated for 72 hrs by CM-H2DCFDA dye based fluorometry; type: functional
2008 [10] = experiment: Inhibition of DHFR protein expression in human 2008 cells at 20 uM incubated for 72 hrs by Western blotting; type: functional; conditions: Homo sapiens, 2008, 72 h
2008 [11] = experiment: Increase in ROS production in human 2008 cells at 40 uM incubated for 72 hrs by CM-H2DCFDA dye based fluorometry; type: functional
C13 [12] = experiment: Inhibition of DHFR protein expression in cDDP-resistant human C13 cells at 40 uM incubated for 72 hrs by Western blotting; type: functional, cell-based
[13] = Growth inhibition of cDDP-resistant human A2780/CP70 cells by crystal violet assay; type: functional, cell-based
C13 [14] = experiment: Effect on thymidylate synthase protein expression in cDDP-resistant human C13 cells at 20 to 40 uM incubated for 72 hrs by Western blotting; type: functional, cell-based
C13 [15] = experiment: Inhibition of DHFR protein expression in cDDP-resistant human C13 cells at 20 uM incubated for 72 hrs by Western blotting; type: functional, cell-based
Thymidylate synthase [16] = target: T1, Thymidylate synthase; experiment: Inhibition of human thymidylate synthase expressed in Escherichia coli at 50 uM incubated for 1 hr by spectrophotometry
Target sequence in this assay (P04818 2-313 limits assumed): as the sequence (P04818 2-313 limits assumed) above

Thymidylate synthase [17] = target: T1, Thymidylate synthase; experiment: Inhibition of human thymidylate synthase expressed in Escherichia coli at 25 uM incubated for 1 hr by spectrophotometry
Target sequence in this assay (P04818 2-313 limits assumed): as above

Thymidylate synthase [18] = target: T1, Thymidylate synthase; experiment: Mixed inhibition of human thymidylate synthase expressed in Escherichia coli incubated for 1 hr using varying mTHF and dUMP levels by spectrophotometry based Lineweaver-Burk method
Target sequence in this assay (P04818 2-313 limits assumed): as above

Thymidylate synthase [19] = target: T1, Thymidylate synthase; experiment: Inhibition of human thymidylate synthase expressed in Escherichia coli incubated for 1 hr using varying dUMP levels by spectrophotometry based Lineweaver-Burk method
Target sequence in this assay (P04818 whole entry): as the sequence (P04818 whole entry) above

Thymidylate synthase [20] = target: T1, Thymidylate synthase; experiment: Inhibition of human thymidylate synthase expressed in Escherichia coli incubated for 1 hr assessed as reduction in mTHF Vmax value by spectrophotometry based Lineweaver-Burk method relative to untreated control
Target sequence in this assay (P04818 2-313 limits assumed): as the sequence (P04818 2-313 limits assumed) above

| SMILES | IC50 2008 [1] [µM] | inhibition (Thymidylate synthase [2]) [%] | IC50 (A2780) [µM] | IC50 (Vero) [µM] | IC50 [4] [µM] | IC50 (Thymidylate synthase [8]) [µM] | IC50 [13] [µM] | other results |
| --- | --- | --- | --- | --- | --- | --- | --- | --- |
| O=C(NC(=O)c1cn(CCNCCO)c(=O)[nH]c1=O)OCc1ccccc1 | 24.1 | 36 | 6.6 | > 80 | 56.8 | 619 | 16.5 | inhibition at 40 µM 2008 [3]: 60%; Activity 2008 [5]: inactive; Activity (C13 [6]): inactive; Activity (C13 [7]): inactive; fold change (FC) 2008 [9]: 1.5; inhibition at 20 µM 2008 [10]: 40%; fold change (FC) 2008 [11]: 1.5; inhibition (C13 [12]): inactive; Activity (C13 [14]): inactive; inhibition (C13 [15]): inactive |
| COc1ccc(C)cc1NC(=O)C(=O)N/N=C/c1ccc(OCC(N)=O)cc1 | > 60 |  |  |  | > 60 | 112 |  | inhibition (Thymidylate synthase [16]): 35% |
| Cc1ccc(C(=O)C2=C(O)C(=O)N(CCN(C)C)C2c2ccc(OCC(N)=O)cc2)o1 (configuration not stated) | 37.4 | 16 | 16.4 | > 80 | > 80 |  | 39.5 |  |
| O=c1[nH]cc(F)c(=O)[nH]1 [FLUOROURACIL] | 4.2 |  | 5.1 | 4.5 | 8.5 |  | 12.3 |  |
| CCN(CC)CCOC(=O)c1ccc(NS(=O)(=O)c2ccc(C(C)(C)C)cc2)cc1 | > 60 | 15 |  |  | > 60 |  |  |  |
| CCCCCn1c(=O)c(C(=O)Nc2ccc(N)cc2)c(O)c2ccccc21 | 8.8 |  | 4.9 | 10.2 | 9.2 | 71 | 12.3 | inhibition (Thymidylate synthase [17]): 41% |
| O=C(CC1S/C(=N\N=C\c2ccccc2O)N=C1O)Nc1cccc(C(F)(F)F)c1 (configuration not stated) | 21.1 |  | 19.4 | 30.3 | 28.3 | 90 | 36.4 | inhibition (Thymidylate synthase [18]): Active; Ki (Thymidylate synthase [19]): 2.5 µM; inhibition (Thymidylate synthase [20]): 60%; inhibition (Thymidylate synthase [17]): 33% |
